Source: patent publication US20180344725A1, “QUINOLONE CHALCONE COMPOUNDS AND USES THEREOF” (priority 2015, published 2018)

Columns and labels:
MDA-MB-231 = experiment: SRB-based cytotoxicity assay; format: cell-based, human
Protocol: (§1) For (anti)proliferation assays, 4,000-5,000 cells/well of the 96-well clustered dish were incubated for 16 hours, as described previously (Hu et al., 2008; Skehan et al., 1990). After 16 hours, culture medium was replaced with fresh medium containing different dilutions of test compounds dissolved in DMSO. Some wells were treated with 100 μl of 10% trichloroacetic acid (TCA) as a negative control and sham (medium with dimethyl sulfoxide; DMSO) treated cells were used as a positive control. After 72 hours post-incubation, medium was removed and cells were fixed with 10% TCA at 4° C. for 1 hour. TCA was removed and cells were washed with cold tap water, and plate was air-dried, followed by addition of 50 μl of 0.4% SRB staining solution to each well. After 30 minutes incubation, SRB staining solution was removed. Cells were washed with 1% acetic acid solution, and then washed with tap water to remove unbound staining solution, followed by air-drying. 200 μl of 10 mM (pH10.5) trizma base buffer was added to each well to solubilise macromolecules. SRB stained macromolecules were determined at a 540 nm wavelength using an automated plate reader (Synergy H4 Hybrid Multi-Mode Microplate Reader, BioTek, Winooski, Vt.). Cell growth (inhibition) was calculated by the following formula:
(§2) % cells proliferation=[(AT−CT)/(ST−CT)]×100
(§3) wherein AT=absorbance of treated cells, CT=absorbance of negative control cells, and ST=absorbance of sham treated cells. IC50 values were calculated from sigmoidal dose-response curves generated by two independent biological replicates, with quadruplicate in each set by using Graph Pad Prism v.5.04 software. […] The combinational index (CI) was calculated as described previously (Chou 2006). If the CI values were less than, equal to or more than 1, it indicates a synergistic, additive or antagonistic effect respectively (Chou 2006). CI values were determined from four independent experiments.

MCF-7 = experiment: SRB-based cytotoxicity assay; format: cell-based, human
Protocol: as §1, §2, §3

184B5 = experiment: SRB-based cytotoxicity assay; format: cell-based; conditions: 184B5 non-cancer
Protocol: as §1, §2, §3

HeLa = experiment: SRB-based cytotoxicity assay; format: cell-based; conditions: Homo sapiens; HeLa; 72 hours; Table 4
Protocol: as §1, §2, §3

MCF-10A = experiment: SRB-based cytotoxicity assay; format: cell-based; conditions: Homo sapiens, MCF-10A; MCF10A non-cancer; 72 hours; Table 4
Protocol: as §1, §2, §3

RPMI-8226 (myeloma) = experiment: SRB-based cytotoxicity assay; format: cell-based; conditions: Homo sapiens, 72 hours, Table 4
Protocol: as §1, §2, §3

MDA-MB-468 = experiment: SRB-based cytotoxicity assay; format: cell-based, human; conditions: MDA-MB-468, SRB, Table 2
Protocol: as §1, §2, §3

MDA-MB231TaxR = experiment: SRB-based cytotoxicity assay, single and combination with paclitaxel; format: cell-based; conditions: TaxR selected in 100.0 nM paclitaxel
Protocol: All of the cell lines used were purchased from ATCC and cultured in RPMI-1640 supplemented with 10% fetal bovine serum and antibiotics (100 units penicillin/100 μg/ml streptomycin), unless stated otherwise. 1845B5 and MCF-10A non-cancer breast cell lines were cultured in DME/F12 medium supplemented with 10% fetal bovine serum, antibiotics and growth factors. […] The human small cell lung carcinoma H69 cell line and its multidrug-resistant MRP1-overexpressing isogenic H69AR cell line were purchased from ATCC. […] H69 cells grow as large multi-cell aggregates, making it difficult to accurately count cell numbers. […] The IL-6 dependent bortezomib-resistant ANBL6-BR cell line was further supplemented with 1 ng/ml of IL-6. The MCF10AT1 and MCF10CA1a cell lines are isogenic to the MCF10A cell line, and obtained from Dr. Valerie Weaver at the Center for Bioengineering and Tissue Regeneration, UCSF, CA, USA. MCF10AT1 is a premalignant cell line generated by transforming MCF10A with c-Ha-Ras; and MCF10CA1a was isolated by selecting malignant cells after MCF10AT1 cells were engrafted into mice (Liu & Lin 2004; […] et al. 2009). […] The drug-resistant cells were cultured in the absence of drug for at least one passage before carrying out experiments. All cells were maintained in a humidified incubator at 37° C. […] Cell line authentication was performed using short tandem repeat (STR) profiling. For (anti)proliferation assays, 4,000-5,000 cells/well of the 96-well clustered dish were incubated for 16 hours, as described previously (Hu et al., 2008; Skehan et al., 1990). […] Some wells were treated with 100 μl of 10% trichloroacetic acid (TCA) as a negative control and sham (medium with dimethyl sulfoxide; DMSO) treated cells were used as a positive control. […] TCA was removed and cells were washed with cold tap water, and plate was air-dried, followed by addition of 50 μl of 0.4% SRB staining solution to each well. After 30 minutes incubation, SRB staining solution was removed. Cells were washed with 1% acetic acid solution, and then washed with tap water to remove unbound staining solution, followed by air-drying. 200 μl of 10 mM (pH10.5) trizma base buffer was added to each well to solubilise macromolecules. […] Cell growth (inhibition) was calculated by the following formula: % cells proliferation=[(AT-CT)/(ST-CT)]×100 wherein AT=absorbance of treated cells, CT=absorbance of negative control cells, and ST=absorbance of sham treated cells. […] The combinational index (CI) was calculated as described previously (Chou 2006). […] CI values were determined from four independent experiments.

RPMI-8226BTZR = experiment: Killing of bortezomib-resistant multiple myeloma cells; format: cell-based
Excerpt: The RPMI-8226BTZR over-expresses β1, β2 and β5 peptides of the 20S subunit. […] However, RPMI-8226BTZR is sensitive to CTR-20, CTR-21 and CTR-32 (FIG. 36).

[1] = Homo sapiens, 72 hours, Table 4

Structure (SMILES)	IC50 (184B5; [1])	IC50 (MCF-10A)	other results
CN(C)CC[C@H](CSc1ccccc1)Nc1ccc(S(=O)(=O)NC(=O)c2ccc(N3CCN(Cc4ccccc4-c4ccc(Cl)cc4)CC3)cc2)cc1[N+](=O)[O-] [ABT-737, reference compound]	–	–	Cell survival rate (MDA-MB-231; single agent 3.125 μM, MDA-MB231): 98.61 ± 3.93; Cell survival rate (MDA-MB-231; single agent 6.25 μM, MDA-MB231): 91.01 ± 9.81
COc1ccccc1C(=O)/C=C/c1cc2cc(C)c(C)cc2[nH]c1=O [CTR-23]	1320 ± 30 nM	1120 ± 40 nM	IC50 (MCF-7; Homo sapiens, MCF7, 72 hours, Table 4): 500 ± 100 nM; IC50 (MDA-MB-231; Homo sapiens, MDA-MB-231, MDA-MB231, 72 hours, Table 4): 1520 ± 120 nM; IC50 (HeLa): 640 ± 50 nM; IC50 (RPMI-8226 (myeloma)): 1410 ± 150 nM
COc1cc2cc(/C=C/C(=O)c3ccccc3OC)c(=O)[nH]c2cc1OC [CTR-24]	2370 ± 190 nM	2100 ± 390 nM	–
COc1cccc(OC)c1C(=O)/C=C/c1cc2ccccc2[nH]c1=O [CTR-25, (E)-3-(3-(2,6-dimethoxyphenyl)-3-oxoprop-1-enyl)quinolin-2(1H)-one]	2640 ± 170 nM	2640 ± 150 nM	–
COc1ccc(OC)c(C(=O)/C=C/c2cc3ccccc3[nH]c2=O)c1 [CTR-26]	770 ± 110 nM	910 ± 30 nM	–
COc1ccc(C(=O)/C=C/c2cc3ccccc3[nH]c2=O)c(OC)c1 [CTR-27]	2800 ± 180 nM	2520 ± 30 nM	IC50 (MDA-MB-231; MDA-MB231, 72 hours, Table 4): 2690 ± 240 nM
COc1ccc(F)cc1C(=O)/C=C/c1cc2ccccc2[nH]c1=O [CTR-29]	280 ± 10 nM	270 ± 50 nM	–
COc1cc(F)ccc1C(=O)/C=C/c1cc2ccccc2[nH]c1=O [CTR-30]	2460 ± 140 nM	2790 ± 590 nM	–
COc1ccc(OC)c(C(=O)/C=C/c2cc3cc(OC)ccc3[nH]c2=O)c1 [CTR-34]	1160 ± 100 nM	980 ± 40 nM	–
COc1ccc(C(=O)/C=C/c2cc3cc(OC)ccc3[nH]c2=O)c(OC)c1 [CTR-35]	4290 ± 60 nM	2880 ± 540 nM	–
COc1ccc2[nH]c(=O)c(/C=C/C(=O)c3ccc(OC(F)(F)F)cc3OC)cc2c1 [CTR-36]	1840 ± 70 nM	1350 ± 160 nM	–
COc1ccc2[nH]c(=O)c(/C=C/C(=O)c3cc(F)ccc3OC)cc2c1 [CTR-37]	440 ± 20 nM	460 ± 110 nM	–
COc1ccc2[nH]c(=O)c(/C=C/C(=O)c3ccc(F)cc3OC)cc2c1 [CTR-38]	160 ± 20 nM	110 nM	–
CCOc1ccccc1C(=O)/C=C/c1cc2cc(OC)ccc2[nH]c1=O [CTR-40, (E)-3-(3-(2-ethoxyphenyl)-3-oxoprop-1-enyl)-6-methoxyquinolin-2(1H)-one]	100 ± 10 nM	70 nM	–
CCN(CC)CCCC(C)Nc1ccnc2cc(Cl)ccc12 (stereo not shown) [Chloroquine, reference compound]	–	–	IC50 (MCF-7; Homo sapiens, MCF7, MCF-7, SRB, Table 2): 38400 nM; IC50 (MDA-MB-231; Homo sapiens, MDA-MB-231, SRB, Table 2): 22500 nM; IC50 (MDA-MB-468; Homo sapiens): 28600 nM; IC50 (184B5; Homo sapiens, SRB, Table 2): 76100 nM
N.N.[Cl][Pt][Cl] [Cisplatin, reference compound]	–	–	IC50 (MCF-7; MCF-7, SRB, Table 2): 25800 nM; IC50 (MDA-MB-231; MDA-MB-231, SRB, Table 2): 23600 nM; IC50 (MDA-MB-468): 31000 nM; IC50 (184B5; SRB, Table 2): 25500 nM
COc1cc2c(c(OC)c1OC)-c1ccc(OC)c(=O)cc1[C@@H](NC(C)=O)CC2 [Colchicine, reference compound]	–	–	killing of MDA-MB231TaxR compared with parental MDA-MB231 (MDA-MB231TaxR): to the same degree as the parental MDA-MB231 cells
CC(C)C[C@H](NC(=O)[C@H](Cc1ccccc1)NC(=O)c1cnccn1)B(O)O [bortezomib, reference compound]	–	–	resistance of RPMI-8226BTZR compared to RPMI-8226 parental cells (RPMI-8226BTZR): approximately 28 fold
